Experimental findings from patent US20100279942A1, “METHODS FOR TREATING MOTOR NEURON DISEASE” (priority 2004, published 2010) are described below.

For the assay, the system named is G93A-SOD1 Tg mice. The experiment in a line: Motor performance (rotarod), disease onset and survival in G93A-SOD1 Tg mice. The class given is in vivo, mouse. The text has this:
Transgenic (Tg) mice (hereinafter, referred to as “G93A-SOD1 Tg mice”) expressing human FALS-associated SOD1 mutant gene with a mutation (G93A) from Gly to Ala at 93 position are the best-established mouse model of ALS (Gurney M E, et al., 1994, Science 264: 1772-1775; and Gurney M E, et al., 1997, J Neurol Sci 152 Suppl 1: S67-73). The G93A-SOD1 Tg mice manifest symptoms quite similar to human ALS after normal birth and rapidly result in death in all cases. The G93A-SOD1 Tg mice, which have the onset of the regression of motor neurons similar clinically and pathologically to that in human ALS, have been known so far to be the most excellent model of ALS throughout the world and employed for identifying effective candidate agents for ALS patients.
The model mice were used to confirm the in vivo effect of ADNF on neurotoxicity induced by G93A-SOD1.
The G93A-SOD 1 Tg mice were purchased from Jackson Laboratories (Bar Harbor, Me.). The G93A-SOD1 Tg mice were kept as hemizygote mice by the mating thereof with C57BL/6J mice (CLEA Japan, Inc). The mice were raised in a SPF room (specific pathogen-free animal facility; 23±1° C., 55±5% humidity) in the 12-hour light/[…] (7:00 AM-7:00 PM). The mice were freely fed with gamma ray-irradiated Picolab Rodent Diet 20 (PMI Feeds Inc. St. Louis, Mo.) and sodium hyposulfite (5 ppm)-containing aseptic deionized distilled water.
The G93A-SOD1 Tg mice at 10 weeks of age were put under anesthesia by the intraperitoneal injection of 10% sodium pentobarbital (60 mg/kg). A hole was made on the cranial bone with a drill on the operating table of a stereotactic instrument to aseptically transplant the C315GS-4 cannula system for mouse (Plastics One Inc., Roanoke, Va.) to the mouse left cerebral ventricle. The cannula was fixed with a surgical adhesive and dental cement. The mice at 80 days of age were divided at random to a saline (control)-administered group (n=8) and an ADNF-administered group (n=11), and 3 μl of saline and 3 μl of 30 nmol ADNF were intracerebroventricularly (icv) injected each day to the former and the latter groups, respectively, until the end of the experiment. The injection was performed with the cannula in C3151S-4 connected to Hamilton syringe through a cannula tube (C232, PE50/Thin wall, Plastic One).
The motor function (motor performance) was evaluated weekly with a rotarod (CLEA Japan Inc). After the cannulation, the mice were acclimated to the rotarod for 2 days. The mice were placed onto a rotating rod moving at 5 rpm, and the time for which each mouse could remain on the rod was automatically detected. The test was conducted according to the protocol wherein the test was completed as a score of 7 minutes if the mouse remained on the rod for 7 minutes (Li M, et al., 2000, Science 288: 335-339; and Kaspar B K, et al., 2003, Science 301: 839-842). Disease onset was defined as the first day when the mouse could not remain on the rotarod for 7 minutes.
Death was defined when the mouse was unable to right itself within 30 seconds after being placed on its back (Li M, et al., supra).
Background: The rotarod test checks motor coordination on a turning rod.

Values joined by “and” are separate entries in the source; they are usually repeats but may differ in a detail not shown here. Identical values can stand only once. “Also recorded” adds a separate entry of the source. Ends that are not written are not given here.

As for “SALLRSIPA [ADNF, short peptide consisting of nine amino acid residues]”, for the setting “30 nmol ADNF icv each day”, the “disease onset versus saline-administered group” value is on record as “prone to be delayed; also recorded: no significant difference”. For the setting “30 nmol ADNF icv each day”, the “survival rate versus ALS control mice” value was “no difference”. Further, where the note is “30 nmol ADNF icv each day, n = 11”, the Survival days was 155.3 ± 3.7 days and 155.3 ± 2.2 days. For the setting “30 nmol ADNF icv each day, n = 11, onset = first day unable to remain on rotarod for 7 minutes”, this sequence had a Disease onset days of 127.3 ± 2.6 days. The “motor performance (rotarod) versus control mice” value is, setting by setting: (Week 16, 30 nmol ADNF icv each day from 80 days of age) “significantly better than that of the control mice”; (Week 18 to Week 20, 30 nmol ADNF icv each day) “this difference between the control mice and the ADNF-treated mice disappeared”.
